These results are taken from ChEMBL document CHEMBL2434848, “Synthesis and biological evaluation of novel alkyl amide functionalized trifluoromethyl substituted pyrazolo[3,4-b]pyridine derivatives as potential anticancer agents” (Bioorg Med Chem Lett, 2013).

Each structure is given as a SMILES string.

Broadly, the IC50 is the concentration that inhibits the measured activity by half.

Assay type in all cases: functional, cell-based; call rule not given here
The subject of test [1] is HeLa. As to the kind of experiment: Cytotoxicity against human HeLa cells after 24 hrs by MTT assay. A general note: Tetrazolium dyes change colour on reduction, which living cells bring about.
For test [2], the system named is A549. As to the kind of experiment: Cytotoxicity against human A549 cells after 24 hrs by MTT assay.
For test [3], the system named is DU-145. As to the kind of experiment: Cytotoxicity against human DU145 cells after 24 hrs by MTT assay.
Test [4] has as its system MCF7. As to the kind of experiment: Cytotoxicity against human MCF7 cells after 24 hrs by MTT assay.
The mark [5] stands for this setting: Homo sapiens, HeLa, 24 h, read-out: IC50.
[6] abbreviates: Homo sapiens, A549, 24 h, read-out: IC50.
The mark [7] stands for this setting: Homo sapiens, DU-145, 24 h, read-out: IC50.
The mark [8] stands for this setting: Homo sapiens, MCF7, 24 h, read-out: IC50.

Take `Nc1nn(CC(=O)NC(Cc2ccccc2)C(=O)O)c2nc(-c3ccccc3)cc(C(F)(F)F)c12` (stereo not given): the IC50 in test [1] (setting [5]) was determined as 31.3 µM; in test [2] (setting [6]), 30.1 µM; in test [3] (setting [7]), 32.3 µM; in test [4] (setting [8]), 42.1 µM.
As to `Nc1nn(CC(=O)NC2CC2)c2nc(-c3ccccc3)cc(C(F)(F)F)c12`, the IC50 result in test [1] (hela), in test [2] (a549), in test [3] (du-145) and in test [4] (mcf7) was “Not Active” throughout.
For `Nc1nn(CC(=O)N2CCCC2)c2nc(-c3ccccc3)cc(C(F)(F)F)c12`, the IC50 stood at 16.1 µM in test [1] (setting [5]), 18.7 µM in test [2] (setting [6]), 12.2 µM in test [3] (setting [7]) and 15.9 µM in test [4] (setting [8]).
The like results for `Nc1nn(CC(=O)N2CCOCC2)c2nc(-c3ccccc3)cc(C(F)(F)F)c12` were, in that order, 6.6 µM, 5.4 µM, 5.1 µM and 5.9 µM.
In the case of `NCCNC(=O)Cn1nc(N)c2c(C(F)(F)F)cc(-c3ccccc3)nc21`, the IC50 is 44.5 µM in test [1] (setting [5]), 50.2 µM in test [2] (setting [6]), 38.9 µM in test [3] (setting [7]) and 42.9 µM in test [4] (setting [8]).
The like results for `CCNC(=O)Cn1nc(N)c2c(C(F)(F)F)cc(-c3ccccc3)nc21` were, in that order, 20.2 µM, 18.8 µM, 17.9 µM and 21.3 µM.
Regarding `Nc1nn(CC(=O)N2CCN(CCO)CC2)c2nc(-c3ccccc3)cc(C(F)(F)F)c12`, the IC50 in test [1] (setting [5]) turned out to be 2.9 µM; in test [2] (setting [6]) it was 14.9 µM; in test [3] (setting [7]), 3.2 µM; in test [4] (setting [8]), 15.6 µM.
The like results for `Nc1nn(CC(=O)NCc2ccco2)c2nc(-c3ccccc3)cc(C(F)(F)F)c12` were, in that order, 7.1 µM, 7.7 µM, 5.6 µM and 5 µM.
The like results for `Nc1nn(CC(=O)N2CCN(c3ccccc3)CC2)c2nc(-c3ccccc3)cc(C(F)(F)F)c12` were, in that order, 19.8 µM, 20.7 µM, 18.9 µM and 19.7 µM.
The like results for `CN1CCN(C(=O)Cn2nc(N)c3c(C(F)(F)F)cc(-c4ccccc4)nc32)CC1` were, in that order, 17.7 µM, 18.4 µM, 18.1 µM and 16.6 µM.
In the case of `Nc1nn(CC(=O)N2CCCCC2)c2nc(-c3ccccc3)cc(C(F)(F)F)c12`, the half-inhibitory concentration (IC50) in test [1] (setting [5]) was found to be 2.9 µM; in test [2] (setting [6]), 1.2 µM; in test [3] (setting [7]), 3.2 µM; in test [4] (setting [8]), 4.1 µM.
On to `CNC(=O)Cn1nc(N)c2c(C(F)(F)F)cc(-c3ccccc3)nc21`, for which the IC50 is 12.2 µM in test [1] (setting [5]), 15.3 µM in test [2] (setting [6]), 14.4 µM in test [3] (setting [7]) and 11.8 µM in test [4] (setting [8]).
The like results for `Nc1nn(CC(=O)NC2CCCCC2)c2nc(-c3ccccc3)cc(C(F)(F)F)c12` were, in that order, 3.9 µM, 2.3 µM, 3.1 µM and 5.2 µM.
The like results for `Nc1nn(CC(=O)NCc2ccccc2)c2nc(-c3ccccc3)cc(C(F)(F)F)c12` were, in that order, 17.1 µM, 17.3 µM, 15.6 µM and 16.3 µM.
In the case of `O=c1[nH]cc(F)c(=O)[nH]1` [FLUOROURACIL], the IC50 was determined as 1.1 µM in test [1] (setting [5]), 1.1 µM in test [2] (setting [6]), 1.3 µM in test [3] (setting [7]) and 1.2 µM in test [4] (setting [8]).
Turning to `NNC(=O)Cn1nc(N)c2c(C(F)(F)F)cc(-c3ccccc3)nc21`, the IC50 was 48.4 µM in test [1] (setting [5]), 53.6 µM in test [2] (setting [6]), 52.4 µM in test [3] (setting [7]) and 35.4 µM in test [4] (setting [8]).
`CC(NC(=O)Cn1nc(N)c2c(C(F)(F)F)cc(-c3ccccc3)nc21)C(=O)O` (stereo not given): the IC50 in test [1] (setting [5]) was 20.1 µM; in test [2] (setting [6]) it was 25.6 µM; in test [3] (setting [7]) it was 22.4 µM; in test [4] (setting [8]), 19.9 µM.
In the case of `Nc1nn(CC(=O)NCCO)c2nc(-c3ccccc3)cc(C(F)(F)F)c12`, the 50% inhibitory concentration (IC50) was determined as 69.5 µM in test [1] (setting [5]), 128 µM in test [2] (setting [6]), 96.3 µM in test [3] (setting [7]) and 78.2 µM in test [4] (setting [8]).
The like results for `Nc1nn(CC(=O)NCC(=O)O)c2nc(-c3ccccc3)cc(C(F)(F)F)c12` were, in that order, 19.1 µM, 19.9 µM, 18.8 µM and 21.2 µM.
The like results for `CCCNC(=O)Cn1nc(N)c2c(C(F)(F)F)cc(-c3ccccc3)nc21` were, in that order, 15.9 µM, 16.5 µM, 15.5 µM and 14.9 µM.
